Test results: PubChem BioAssay (NCI)
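96-well plates; 48 h exposure; 5 concentrations. Endpoints by linear interpolation between flanking doses. Not reached: highest tested concentration assigned. The concentration for 50% growth inhibition is given as GI50. The concentration for full growth arrest is given as TGI.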

Assays:
Assay in all cases: NCI-60 cell line screen, 48 h
[1] = system: SF-295 CNS
[2] = system: HS 578T breast
[3] = system: TK-10 renal
[4] = system: SF-539 CNS
[5] = system: SK-MEL-2 melanoma
[6] = system: A498 renal
[7] = system: SR leukemia
[8] = system: SN12C renal
[9] = system: SK-OV-3 ovarian
[10] = system: HCC-2998 colon
[11] = system: NCI-H522 lung
[12] = system: RPMI-8226 leukemia
[13] = system: NCI-H23 lung
[14] = system: HOP-62 NSCLC
[15] = system: UACC-62 melanoma
[16] = system: MDA-MB-231 breast
[17] = system: T-47D breast
[18] = system: NCI/ADR-RES ovarian
[19] = system: HOP-92 NSCLC
[20] = system: CCRF-CEM leukemia
[21] = system: UACC-257 melanoma
[22] = system: SK-MEL-5 melanoma
[23] = system: U251 CNS
[24] = system: DU-145 prostate
[25] = system: SNB-75 CNS
[26] = system: HCT-15 colon
[27] = system: 786-0 renal
[28] = system: MCF7 breast
[29] = system: OVCAR-5 ovarian
[30] = system: ACHN renal
[31] = system: BT-549 breast
[32] = system: PC-3 prostate
[33] = system: NCI-H226 lung
[34] = system: A549 NSCLC
[35] = system: EKVX NSCLC
[36] = system: COLO 205 colon
[37] = system: SNB-19 CNS
[38] = system: OVCAR-3 ovarian
[39] = system: HCT-116 colon
[40] = system: OVCAR-4 ovarian
[41] = system: OVCAR-8 ovarian
[42] = system: UO-31 renal
[43] = system: CAKI-1 renal
[44] = system: RXF 393 renal
[45] = system: SK-MEL-28 melanoma
[46] = system: IGROV1 ovarian
[47] = system: MALME-3M melanoma
[48] = system: SW-620 colon
[49] = system: HT29 colon
[50] = system: NCI-H460 lung
[51] = system: SF-268 CNS
[52] = system: LOX IMVI melanoma
[53] = system: M14 melanoma
[54] = system: HL-60(TB) leukemia
[55] = system: K-562 leukemia
[56] = system: KM12 colon
[57] = system: MOLT-4 leukemia

Cc1ccc2oc(=O)cc(C3c4ccc([nH]4)C(c4cc(=O)oc5ccc(C)cc45)c4ccc([nH]4)C(c4cc(=O)oc5ccc(C)cc45)c4ccc([nH]4)C(c4cc(=O)oc5ccc(C)cc45)c4ccc3[nH]4)c2c1 (stereo not given)
GI50 [1]: 27 nM | TGI [1]: 284 nM | GI50 [2]: 35.1 nM | TGI [2]: 2020 nM | GI50 [3]: 51.9 nM | TGI [3]: 926 nM | GI50 [4]: 23.9 nM | TGI [4]: 66.9 nM | GI50 [5]: 98.3 nM | TGI [5]: 1020 nM | GI50 [6]: 27.5 nM | TGI [6]: 248 nM | GI50 [7]: 41.7 nM | GI50 [8]: 58.6 nM | TGI [8]: 1740 nM | GI50 [9]: 24.7 nM | TGI [9]: 68.7 nM | GI50 [10]: 188 nM | TGI [10]: 846 nM | GI50 [11]: 212 nM | TGI [11]: 796 nM | GI50 [12]: 51.6 nM | TGI [12]: 578 nM | GI50 [13]: 57.4 nM | TGI [13]: 1580 nM | GI50 [14]: 46.3 nM | TGI [14]: 1270 nM | GI50 [15]: 32.4 nM | TGI [15]: 800 nM | GI50 [16]: 125 nM | TGI [16]: 818 nM | GI50 [17]: 43.4 nM | TGI [17]: 2990 nM | GI50 [18]: 31.3 nM | TGI [18]: 1100 nM | GI50 [19]: 106 nM | TGI [19]: 1070 nM | GI50 [20]: 35.9 nM | TGI [20]: > 100000 nM | GI50 [21]: 183 nM | TGI [21]: 2460 nM | GI50 [22]: 32 nM | TGI [22]: 127 nM | GI50 [23]: 36.9 nM | TGI [23]: 1270 nM | GI50 [24]: 39.1 nM | TGI [24]: 1800 nM | GI50 [25]: 25.6 nM | TGI [25]: 1610 nM | GI50 [26]: 31.7 nM | TGI [26]: 1210 nM | GI50 [27]: 28.8 nM | TGI [27]: 93.7 nM | GI50 [28]: 39.4 nM | TGI [28]: 1950 nM | GI50 [29]: 106 nM | TGI [29]: 2710 nM | GI50 [30]: 62.1 nM | TGI [30]: 2670 nM | GI50 [31]: 29.9 nM | TGI [31]: 183 nM | GI50 [32]: 36.6 nM | TGI [32]: 1940 nM | GI50 [33]: 86.5 nM | TGI [33]: 2780 nM | GI50 [34]: 63 nM | TGI [34]: 1540 nM | GI50 [35]: 63.2 nM | TGI [35]: 4480 nM | GI50 [36]: 165 nM | TGI [36]: 353 nM | GI50 [37]: 39.4 nM | TGI [37]: 3450 nM | GI50 [38]: 22.5 nM | TGI [38]: 53.3 nM | GI50 [39]: 29.5 nM | TGI [39]: 280 nM | GI50 [40]: 104 nM | TGI [40]: 3810 nM | GI50 [41]: 33.8 nM | TGI [41]: 1520 nM | GI50 [42]: 36.4 nM | TGI [42]: 1190 nM | GI50 [43]: 80.6 nM | TGI [43]: 1790 nM | GI50 [44]: 25.4 nM | TGI [44]: 77.4 nM | GI50 [45]: 75 nM | TGI [45]: 2980 nM | GI50 [46]: 49.2 nM | TGI [46]: 1730 nM | GI50 [47]: 131 nM | TGI [47]: 2850 nM | GI50 [48]: 35.2 nM | TGI [48]: 3340 nM | GI50 [49]: 34.7 nM | TGI [49]: 108 nM | GI50 [50]: 37.5 nM | TGI [50]: 656 nM | GI50 [51]: 56.1 nM | TGI [51]: 1470 nM | GI50 [52]: 36.5 nM | TGI [52]: 1230 nM | GI50 [53]: 25.3 nM | TGI [53]: 76.6 nM

COc1cccc2cc(N(C)c3nc(C)nc4ccsc34)ccc12
GI50 [1]: < 10 nM | TGI [1]: 12400 nM | GI50 [2]: < 10 nM | TGI [2]: 22400 nM | GI50 [3]: 1870 nM | TGI [3]: 24100 nM | GI50 [4]: < 10 nM | TGI [4]: < 10 nM | GI50 [5]: 123 nM | TGI [5]: 17300 nM | GI50 [6]: < 10 nM | TGI [6]: < 15 nM | GI50 [7]: < 10 nM | TGI [7]: 26800 nM | GI50 [8]: < 10 nM | TGI [8]: 15000 nM | GI50 [9]: < 10 nM | TGI [9]: 35800 nM | GI50 [10]: < 10 nM | TGI [10]: 8010 nM | GI50 [11]: < 10 nM | GI50 [12]: < 10 nM | TGI [12]: 6020 nM | GI50 [13]: < 10 nM | TGI [13]: 18000 nM | TGI [14]: 18900 nM | GI50 [15]: < 10 nM | TGI [15]: 12500 nM | GI50 [54]: < 10 nM | TGI [54]: < 10 nM | GI50 [16]: < 10 nM | TGI [16]: 15000 nM | GI50 [17]: < 10 nM | TGI [17]: > 100000 nM | GI50 [18]: < 10 nM | TGI [18]: 11000 nM | GI50 [19]: < 10 nM | TGI [19]: 2190 nM | GI50 [20]: < 10 nM | TGI [20]: > 100000 nM | GI50 [21]: 10800 nM | TGI [21]: 27000 nM | GI50 [55]: < 10 nM | TGI [55]: > 48600 nM | GI50 [22]: < 10 nM | TGI [22]: < 10 nM | GI50 [23]: < 10 nM | TGI [23]: 15100 nM | GI50 [24]: < 10 nM | TGI [24]: 10600 nM | GI50 [25]: < 10 nM | TGI [25]: 5300 nM | GI50 [26]: < 10 nM | TGI [26]: 13500 nM | GI50 [27]: < 10 nM | TGI [27]: 12300 nM | GI50 [28]: < 10 nM | TGI [28]: 16300 nM | GI50 [29]: < 10 nM | TGI [29]: 17400 nM | GI50 [30]: < 10 nM | TGI [30]: 13300 nM | GI50 [31]: < 10 nM | TGI [31]: 1300 nM | GI50 [56]: < 10 nM | TGI [56]: 11400 nM | GI50 [32]: < 10 nM | TGI [32]: 15100 nM | GI50 [33]: < 15 nM | TGI [33]: 19800 nM | GI50 [34]: < 10 nM | TGI [34]: 16000 nM | GI50 [35]: < 10 nM | TGI [35]: 21100 nM | GI50 [36]: < 10 nM | GI50 [37]: < 10 nM | TGI [37]: 22900 nM | GI50 [38]: < 10 nM | GI50 [39]: < 10 nM | TGI [39]: 10500 nM | GI50 [40]: < 26.6 nM | TGI [40]: 19800 nM | GI50 [41]: < 10 nM | TGI [41]: 38500 nM | GI50 [42]: < 10 nM | TGI [42]: 12500 nM | GI50 [43]: < 10 nM | TGI [43]: 15300 nM | GI50 [57]: < 10 nM | TGI [57]: 29700 nM | GI50 [44]: < 10 nM | TGI [44]: 16400 nM | GI50 [45]: 1530 nM | TGI [45]: 20000 nM | GI50 [46]: < 10 nM | TGI [46]: 14500 nM | GI50 [47]: < 11.6 nM | TGI [47]: 18000 nM | GI50 [48]: < 10 nM | TGI [48]: 16600 nM | GI50 [49]: < 10 nM | TGI [49]: 11600 nM | GI50 [50]: < 10 nM | TGI [50]: 10900 nM | GI50 [51]: < 10 nM | TGI [51]: 13900 nM | GI50 [52]: < 10 nM | TGI [52]: 13600 nM | GI50 [53]: < 10 nM | TGI [53]: 12600 nM
